Tests used:
[1] = molecular target: T1, CSF1R kinase (recombinant N-terminal GST-CSF1R, residues L534-C972) (Homo sapiens, UniProt P07333); test: CSF1R Kinase-Glo assay; type: biochemical; details: 40 μM ATP, 30° C. 180 min, read-out: Enzymatic Assay CSF1R enzyme IC50
T1 construct: Recombinant N-terminal GST-CSF1R (CSF1R residues L534-C972) containing the CSFIR kinase domain; made in house; host or cells: Sf9 insect cells
T1 sequence (P07333 534-972): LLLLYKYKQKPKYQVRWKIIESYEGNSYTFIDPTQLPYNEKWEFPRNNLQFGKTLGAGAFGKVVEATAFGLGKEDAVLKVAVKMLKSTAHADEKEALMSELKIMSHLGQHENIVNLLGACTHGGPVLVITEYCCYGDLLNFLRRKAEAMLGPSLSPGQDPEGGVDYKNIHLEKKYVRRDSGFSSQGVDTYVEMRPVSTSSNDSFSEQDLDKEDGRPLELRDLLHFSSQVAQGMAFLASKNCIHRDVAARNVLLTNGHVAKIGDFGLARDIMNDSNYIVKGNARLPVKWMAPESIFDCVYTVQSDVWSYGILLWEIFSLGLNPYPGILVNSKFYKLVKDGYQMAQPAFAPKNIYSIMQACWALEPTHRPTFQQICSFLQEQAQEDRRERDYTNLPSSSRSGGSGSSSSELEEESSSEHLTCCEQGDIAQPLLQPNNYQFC
Summary of the method: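 Sf9-expressed, purified GST-CSF1R kinase domain (600 ng) was incubated with compound for 180 min at 30° C. with 40 μM ATP and 20 μM poly(Glu,Tyr) 4:1 at pH 7.4 (Mn2+/Mg2+). Remaining ATP was read by Kinase-Glo Plus luminescence. IC50 was fitted from percentage inhibition versus no-compound controls across a concentration range.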

[2] = molecular target: T2, fms-like tyrosine kinase 3 (FLT3) (Homo sapiens, UniProt P36888); test: HotSpot kinase profiling, FLT3; type: biochemical; details: HotSpot assay, 10 μM ATP; IC50 of kinase divided by that of CSF1R
T2 sequence (P36888 27-993): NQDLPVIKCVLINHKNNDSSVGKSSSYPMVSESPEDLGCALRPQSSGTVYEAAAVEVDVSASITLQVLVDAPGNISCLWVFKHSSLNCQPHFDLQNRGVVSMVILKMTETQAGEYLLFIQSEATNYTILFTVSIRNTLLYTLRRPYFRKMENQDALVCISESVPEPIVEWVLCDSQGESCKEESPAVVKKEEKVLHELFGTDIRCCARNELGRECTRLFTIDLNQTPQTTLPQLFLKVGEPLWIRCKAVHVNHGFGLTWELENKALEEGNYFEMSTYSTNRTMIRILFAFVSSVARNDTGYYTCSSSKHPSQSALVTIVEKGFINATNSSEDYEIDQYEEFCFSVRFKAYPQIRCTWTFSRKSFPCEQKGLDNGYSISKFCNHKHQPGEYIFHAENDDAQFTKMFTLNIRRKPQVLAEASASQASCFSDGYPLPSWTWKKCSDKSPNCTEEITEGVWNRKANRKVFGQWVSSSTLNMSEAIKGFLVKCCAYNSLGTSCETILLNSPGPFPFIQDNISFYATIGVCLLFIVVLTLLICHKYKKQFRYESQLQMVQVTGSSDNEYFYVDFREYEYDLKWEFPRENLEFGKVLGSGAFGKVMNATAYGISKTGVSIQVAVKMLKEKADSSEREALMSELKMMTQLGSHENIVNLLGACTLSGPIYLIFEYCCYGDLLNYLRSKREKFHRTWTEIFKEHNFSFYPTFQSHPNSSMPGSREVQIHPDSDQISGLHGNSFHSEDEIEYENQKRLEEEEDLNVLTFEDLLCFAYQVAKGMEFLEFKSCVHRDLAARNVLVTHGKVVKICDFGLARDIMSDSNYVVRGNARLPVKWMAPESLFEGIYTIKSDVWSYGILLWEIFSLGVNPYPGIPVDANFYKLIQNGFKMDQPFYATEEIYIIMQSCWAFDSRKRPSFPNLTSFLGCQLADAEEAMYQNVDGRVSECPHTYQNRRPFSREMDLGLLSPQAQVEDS
Description: A study was conducted to determine kinase selectivity of compounds 27 and 67. More specifically, each compound was tested for inhibitory activity of CSF1R kinase, as compared to that of seven other kinases, i.e., Aurora A, Aurora B, tyrosine-protein kinase Kit (c-Kit), fms-like tyrosine kinase 3 (FLT3), platelet-derived growth factor receptor (PDGFR) A, PDGFR B, and discoidin domain receptor tyrosine kinase 1 (DDR1).
In vitro profiling of the kinase panel was performed at Reaction Biology Corporation (www.reactionbiology.com, Malvern, PA) using the “HotSpot” assay platform. Briefly, specific kinase/substrate pairs along with required cofactors were prepared in a reaction buffer containing 20 mM Hepes pH 7.5, 10 mM MgCl2, 1 mM EGTA, 0.02% Brij35, 0.02 mg/ml BSA, 0.1 mM NA3VO4, 2 mM DTT, and 1% DMSO. Compound 27 or 67 was added. 20 minutes later, a mixture of ATP (Sigma, St. Louis MO) and ^33P ATP (Perkin Elmer, Waltham MA) was added to the resulting reaction solution to give a final concentration of 10 μM. The reaction was carried out at room temperature for 120 min., followed by spotting the reaction solution onto P81 ion exchange filter paper (Whatman Inc., Piscataway, NJ). Unbound phosphate was removed by extensive washing filters in 0.75% phosphoric acid. […] Selectivity, expressed as an IC50 ratio, was determined by dividing the IC50 value of a kinase, e.g., Aurora A, by that of CSF1R.

Row | SMILES | IC50 [1] [nM] | IC50 ratio FLT3 / CSF1R [2]
1 | CN(C)c1ccc2c(Oc3ccc(NC(=O)NCc4ccc(C(F)(F)F)nc4)cc3)ncnc2c1 [Compound 27, 1-(4-((7-(dimethylamino)quinazolin-4-yl)oxy)phenyl)-3-((6-(trifluoromethyl)pyridin-3-yl)methyl)urea] | < 20 | +++ (+++: 1000 > IC50 ratio > 100)
2 | CN(C)c1ccc2c(Oc3ccc4c(ccn4C(=O)NCc4ccc(C(F)(F)F)nc4)c3)ncnc2c1 [Compound 67, 5-((7-(dimethylamino)quinazolin-4-yl)oxy)-N-((6-(trifluoromethyl)pyridin-3-yl)methyl)-1H-indole-1-carboxamide] | 20 to 100 | +++ (+++: 1000 > IC50 ratio > 100)

Source: US12668584B2, “Heterocyclic compounds as kinase inhibitors for therapeutic uses” (National Health Research Institutes, priority 2019, dated 2026)
